As usually defined, the IC50 is the concentration needed to halve the response being measured. As usually defined, the inhibition is the percentage by which the read-out fell short of the control. A lower inhibition goes with a weak effect.

Data set [1] concerns collagen-induced arthritis in DBA/1j mice. Briefly: Mouse Collagen-Induced Arthritis. Format: in vivo. The conditions noted are these: 10 mg/kg/day, once daily for 14 days, oral gavage; arthritic index vs control. Here is the method:
Seven- to eight-week-old male DBA/1j mice were used for all procedures. Animals were housed in groups of 10, and were maintained at 21° C.±2° C. on a 12-hour light/dark cycle with food and water ad libitum. Complete Freund's adjuvant (CFA) was prepared by emulsifying bovine type II collagen at 4 mg/mL with a 4 mg/mL suspension of Mycobacterium tuberculosis H37Ra in Incomplete Freund's Adjuvant (IFA) (0.85 mL paraffin oil and 0.15 mL mannide monooleate) in a 1:1 (v/v) ratio. All mice were immunised subcutaneously with 200 μg of bovine type II collagen in CFA. 21 days later, all mice were immunised subcutaneously with 100 μg of bovine type II collagen in IFA. The mice started to develop signs and symptoms of arthritis following the ‘booster’ immunisation.
For macroscopic assessment of arthritis, the following signs were monitored in each paw of each mouse three times per week and summed to generate the Arthritic Index (A1) (the maximum A1 for one animal is 16): • 0=no visible effects of arthritis. • 1=oedema and/or erythema of 1 digit. • 2=oedema and/or erythema of 2 digits. • 3=oedema and/or erythema of more than 2 digits. • 4=severe arthritis of entire paw and digits.
Animals were sorted into treatment groups with a mean arthritic index of 2.5 and then dosed once daily for 14 days with compound: by oral gavage for test compounds, or by subcutaneous injection at a dose of 10 mg/kg for the positive control, etanercept. After completion of the experiment, the mice were sacrificed.
The data were analysed by generating an average of the arthritic index across each treatment group. The mean arthritic index was then compared to the arthritic index of control (untreated) animals using the following formula to generate a percentage inhibition of disease.

The target of data set [2] is CYP1A2 (Homo sapiens (Human), UniProt P05177). Briefly: Human Cytochrome P450 Inhibition Assay (Bactosomes). Format: in vitro ADME. To be noted: recombinant Bactosomes, 10 minutes; read-out: IC50 CYP1A2. The method, then:
(§1) The ability of test compounds to inhibit five of the most relevant cytochrome P450 enzymes was measured by determination of the activity of cytochrome P450 enzymes in recombinant cytochrome preparations, called Bactosomes (Cypex Ltd, Dundee, Scotland UK DD2 1 NH), in the presence of a specific probe substrate. Bactosomes are a highly efficient and cost-effective source of recombinant CYP450s which have a higher specific activity of enzyme compared to other sources, such as liver microsomes. […] The following CYP450 isoforms were assayed: CYP1A2, CYP2C9, CYP2C19, CYP2D6 and CYP3A4. The study of CYP450 inhibition potential in Bactosomes is accepted as a valuable model permitting rapid prediction of potential drug-drug interactions in vivo (see, e.g., Weaver et al., 2003).
(§2) Bactosomes were obtained from a commercial source (Cypex, Scotland, UK). Test compounds were incubated with Bactosomes at 6 concentrations. Samples were incubated for 10 minutes, after which the reaction was stopped and the samples analysed by LC-MS/MS Multiple Reaction Monitoring (MRM) for the presence/amount of substrate probe.
(§3) CYP450 enzymes (final protein 75 pmol/mL for CYP1A2; 12.5 pmol/mL for CYP2C19; and 25 pmol/mL for CYP2C9, 2D6 and 3A4), 0.1 M phosphate buffer pH 7.4, probe and test compound (final concentration 50, 15.8, 5, 1.58, 0.5 and 0.158 μM; diluted from 10 mM stock solution to give a final DMSO concentration of 1%) were pre-incubated at 37° C. for 5 minutes. The reaction was initiated by the addition of 20 μL of 10 mM NADPH in phosphate buffer. The final incubation volume was 200 μL. The following control inhibitors were used for each CYP450 inhibition assay: CYP1A2: α-naphthoflavone; CYP2C9: sulfaphenazole; CYP2C19: tranylcypromine; CYP2D6: quinidine; CYP3A4: ketoconazole.
(§4) Each compound was incubated for 10 minutes at 37° C. The reactions were stopped by the addition of methanol (final composition 1:1, aqueous: methanol). The incubation plates were shaken, chilled at […] for 2 hours, and centrifuged at 3500 rpm for 15 minutes at 4° C. to precipitate the protein.

Data set [3] addresses CYP2C19 (Homo sapiens (Human), UniProt P33261). The data set is described as above. The conditions noted are these: recombinant Bactosomes, 10 minutes. The data set is classed as in vitro ADME. Here is the method:
as §1, §2, §3, §4

In data set [4] the target is CYP3A4 (Homo sapiens (Human), UniProt P08684). The data set is described as above. Format: in vitro ADME. The conditions noted are these: recombinant Bactosomes, 10 minutes. The method, then: as §1, §2, §3, §4
Data set [5] has as its target CYP2D6 (Homo sapiens (Human), UniProt P10635). The description is as above. The data set is classed as in vitro ADME. To be noted: recombinant Bactosomes, 10 minutes. The method, then: as §1, §2, §3, §4
Data set [6] concerns the target CYP2C9 (Homo sapiens (Human), UniProt P11712). The description is as above. Format: in vitro ADME. The conditions noted are these: recombinant Bactosomes, 10 minutes. The method, then:
as §1, §2, §3, §4

Data set [7] concerns the target hERG (Homo sapiens (Human), UniProt Q12809). In words: hERG Ion Channel binding assay (3H astemizole displacement). To be noted: human, membranes of HEK293 cells stably expressing hERG, pH 7.4, probe 3H astemizole (1.5 nM); Tested at 25 μM; displacement of 3H astemizole, hERG-HEK293 membranes. The method, boiled down: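 Membranes from stably transfected hERG-HEK293 cells incubated with 1.5 nM ³H-astemizole ± test compound in HEPES buffer pH 7.4 (0.1% BSA, 5 mM KCl, 130 mM NaCl) at 25° C for 60 min. Bound ligand measured by filtration and scintillation counting; reported as % displacement (0% none, 100% complete).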
(In general: hERG is a cardiac potassium channel; its block is linked to QT prolongation.)

The structures appear in SMILES notation.

Sequence of CYP2C19 (P33261 whole entry): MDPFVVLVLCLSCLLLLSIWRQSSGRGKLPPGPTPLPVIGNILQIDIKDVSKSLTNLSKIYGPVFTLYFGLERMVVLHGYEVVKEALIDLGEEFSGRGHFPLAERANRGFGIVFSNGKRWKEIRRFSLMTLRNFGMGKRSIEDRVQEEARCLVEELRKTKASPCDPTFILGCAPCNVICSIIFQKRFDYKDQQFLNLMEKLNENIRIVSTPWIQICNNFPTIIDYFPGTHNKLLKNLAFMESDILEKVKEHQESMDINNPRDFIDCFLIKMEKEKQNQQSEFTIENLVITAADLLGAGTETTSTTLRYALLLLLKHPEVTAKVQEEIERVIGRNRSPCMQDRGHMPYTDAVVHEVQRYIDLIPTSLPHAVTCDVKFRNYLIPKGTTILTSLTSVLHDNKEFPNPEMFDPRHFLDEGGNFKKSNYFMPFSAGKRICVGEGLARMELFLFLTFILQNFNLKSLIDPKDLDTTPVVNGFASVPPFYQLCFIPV
Sequence of hERG (Q12809 whole entry): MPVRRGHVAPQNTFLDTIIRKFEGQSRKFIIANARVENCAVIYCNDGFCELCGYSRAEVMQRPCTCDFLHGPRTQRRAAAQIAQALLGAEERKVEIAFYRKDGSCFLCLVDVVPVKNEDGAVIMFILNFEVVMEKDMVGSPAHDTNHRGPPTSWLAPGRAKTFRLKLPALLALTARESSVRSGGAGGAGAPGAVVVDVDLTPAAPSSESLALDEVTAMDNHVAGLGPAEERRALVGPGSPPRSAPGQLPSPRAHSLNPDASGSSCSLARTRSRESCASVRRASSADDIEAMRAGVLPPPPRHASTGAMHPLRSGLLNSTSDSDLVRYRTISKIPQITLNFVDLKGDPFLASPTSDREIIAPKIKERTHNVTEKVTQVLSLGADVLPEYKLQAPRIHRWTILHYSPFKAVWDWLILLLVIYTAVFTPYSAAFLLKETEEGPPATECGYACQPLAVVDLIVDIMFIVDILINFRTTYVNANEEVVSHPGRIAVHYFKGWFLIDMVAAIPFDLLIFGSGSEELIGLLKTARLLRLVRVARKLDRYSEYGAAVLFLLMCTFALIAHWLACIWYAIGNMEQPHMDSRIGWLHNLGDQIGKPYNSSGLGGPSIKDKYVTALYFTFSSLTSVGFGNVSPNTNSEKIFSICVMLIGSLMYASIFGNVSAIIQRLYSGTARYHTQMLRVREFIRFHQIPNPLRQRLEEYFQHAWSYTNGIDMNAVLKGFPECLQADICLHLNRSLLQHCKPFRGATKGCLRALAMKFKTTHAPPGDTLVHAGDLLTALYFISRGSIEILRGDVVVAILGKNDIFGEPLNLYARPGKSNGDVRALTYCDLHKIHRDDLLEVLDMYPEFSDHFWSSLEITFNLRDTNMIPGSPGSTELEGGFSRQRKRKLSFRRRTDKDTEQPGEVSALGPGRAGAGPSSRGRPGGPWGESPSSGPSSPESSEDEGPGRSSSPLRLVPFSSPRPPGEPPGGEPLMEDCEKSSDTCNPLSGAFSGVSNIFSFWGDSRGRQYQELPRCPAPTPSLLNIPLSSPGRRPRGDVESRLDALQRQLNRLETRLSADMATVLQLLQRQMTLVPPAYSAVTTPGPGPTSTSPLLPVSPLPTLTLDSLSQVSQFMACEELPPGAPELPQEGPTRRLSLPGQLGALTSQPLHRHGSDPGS
Sequence of CYP2D6 (P10635 whole entry): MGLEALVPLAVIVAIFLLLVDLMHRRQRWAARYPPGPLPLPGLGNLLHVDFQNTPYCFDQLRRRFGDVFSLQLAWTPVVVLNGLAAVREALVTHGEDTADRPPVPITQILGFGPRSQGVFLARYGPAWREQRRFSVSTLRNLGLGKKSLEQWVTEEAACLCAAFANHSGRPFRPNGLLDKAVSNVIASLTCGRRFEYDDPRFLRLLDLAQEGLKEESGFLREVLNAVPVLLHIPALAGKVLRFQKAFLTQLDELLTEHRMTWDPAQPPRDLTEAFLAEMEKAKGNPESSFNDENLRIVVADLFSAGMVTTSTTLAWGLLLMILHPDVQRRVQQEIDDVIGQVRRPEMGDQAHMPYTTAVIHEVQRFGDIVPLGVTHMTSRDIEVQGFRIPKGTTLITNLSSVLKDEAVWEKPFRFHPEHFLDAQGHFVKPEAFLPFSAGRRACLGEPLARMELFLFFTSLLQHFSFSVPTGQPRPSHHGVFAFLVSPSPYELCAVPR
Sequence of CYP2C9 (P11712 whole entry): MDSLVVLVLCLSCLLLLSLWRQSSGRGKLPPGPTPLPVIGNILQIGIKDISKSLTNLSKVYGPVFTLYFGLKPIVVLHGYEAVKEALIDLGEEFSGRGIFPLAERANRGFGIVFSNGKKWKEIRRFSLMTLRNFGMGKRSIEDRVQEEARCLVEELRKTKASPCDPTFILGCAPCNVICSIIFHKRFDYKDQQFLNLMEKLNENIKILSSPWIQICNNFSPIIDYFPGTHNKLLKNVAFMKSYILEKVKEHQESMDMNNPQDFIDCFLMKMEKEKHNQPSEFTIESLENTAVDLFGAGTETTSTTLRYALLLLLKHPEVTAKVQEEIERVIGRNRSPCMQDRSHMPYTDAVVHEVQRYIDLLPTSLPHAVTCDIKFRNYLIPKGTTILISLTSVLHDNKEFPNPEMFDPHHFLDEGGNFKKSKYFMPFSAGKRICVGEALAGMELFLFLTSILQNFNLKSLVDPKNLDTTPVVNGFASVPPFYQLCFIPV
Sequence of CYP1A2 (P05177 whole entry, canonical isoform): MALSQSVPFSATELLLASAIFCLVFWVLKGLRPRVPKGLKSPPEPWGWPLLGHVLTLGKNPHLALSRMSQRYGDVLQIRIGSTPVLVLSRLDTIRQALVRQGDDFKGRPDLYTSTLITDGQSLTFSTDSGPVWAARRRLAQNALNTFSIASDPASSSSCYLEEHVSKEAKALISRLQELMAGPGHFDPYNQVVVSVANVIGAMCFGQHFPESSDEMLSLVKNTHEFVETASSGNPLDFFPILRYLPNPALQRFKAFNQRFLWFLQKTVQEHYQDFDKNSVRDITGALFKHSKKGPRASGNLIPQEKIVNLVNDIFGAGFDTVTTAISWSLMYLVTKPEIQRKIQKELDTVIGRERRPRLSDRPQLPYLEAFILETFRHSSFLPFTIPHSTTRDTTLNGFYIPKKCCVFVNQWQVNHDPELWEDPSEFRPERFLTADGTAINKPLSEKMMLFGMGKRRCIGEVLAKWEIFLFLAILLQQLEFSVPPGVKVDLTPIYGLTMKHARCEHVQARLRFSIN
Sequence of CYP3A4 (P08684 whole entry): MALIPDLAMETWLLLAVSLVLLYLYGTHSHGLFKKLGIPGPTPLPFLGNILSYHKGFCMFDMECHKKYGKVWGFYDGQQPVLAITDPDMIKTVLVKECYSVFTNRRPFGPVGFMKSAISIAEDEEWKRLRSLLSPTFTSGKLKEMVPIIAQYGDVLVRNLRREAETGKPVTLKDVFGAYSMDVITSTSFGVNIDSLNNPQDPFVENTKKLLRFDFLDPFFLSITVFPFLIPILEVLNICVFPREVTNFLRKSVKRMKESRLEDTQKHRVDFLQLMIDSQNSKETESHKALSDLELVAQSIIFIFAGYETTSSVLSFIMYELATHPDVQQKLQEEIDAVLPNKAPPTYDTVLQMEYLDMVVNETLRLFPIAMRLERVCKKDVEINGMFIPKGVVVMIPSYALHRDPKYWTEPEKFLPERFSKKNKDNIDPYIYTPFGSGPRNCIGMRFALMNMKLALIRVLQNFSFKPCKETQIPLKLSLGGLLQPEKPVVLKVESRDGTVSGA

Consider `C[C@]1(O)CC[C@H](NS(=O)(=O)c2ccc(-c3ccc(Cl)cc3C#N)cc2)CC1` [HMC-C-01-A, reference compound], for which the “% inhibition of disease” value in data set [1] is listed as 40%. The IC50 in data set [2] is 25 µM; in data set [3], over 25 µM; in data set [4], over 25 µM; in data set [5] it was 16.6 µM; in data set [6], 21 µM. Moreover, the inhibition at 60 min, 25 µM in data set [7] turned out to be 18%.

Source of the values: patent publication US12162836B2, “N-acyl-{4-[(4-aryl-phenyl)sulfonylmethyl]piperidine} compounds and their therapeutic use” (Modern Biosciences Limited, priority 2019, dated 2024).
